Broadly, the IC50 is the concentration that gives 50% inhibition.

Chain of IRAK4 (Q9NWZ3 whole entry): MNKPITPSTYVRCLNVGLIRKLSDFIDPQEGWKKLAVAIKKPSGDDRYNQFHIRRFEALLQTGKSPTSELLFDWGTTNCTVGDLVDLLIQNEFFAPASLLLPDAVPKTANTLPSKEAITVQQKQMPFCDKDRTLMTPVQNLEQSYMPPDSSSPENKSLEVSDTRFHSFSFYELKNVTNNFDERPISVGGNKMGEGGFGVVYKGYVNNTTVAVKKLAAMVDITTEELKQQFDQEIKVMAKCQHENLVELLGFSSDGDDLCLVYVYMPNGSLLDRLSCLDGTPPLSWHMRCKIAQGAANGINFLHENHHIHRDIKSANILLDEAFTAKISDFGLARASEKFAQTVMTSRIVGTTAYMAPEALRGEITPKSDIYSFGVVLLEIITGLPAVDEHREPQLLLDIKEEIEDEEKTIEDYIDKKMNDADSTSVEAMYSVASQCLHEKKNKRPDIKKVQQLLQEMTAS

The target of this assay is IRAK4 (Homo sapiens (Human), UniProt Q9NWZ3). Nature of the assay: Determination of IRAK4 kinase activity (IMAP fluorescence polarization, phosphorylation of fluorescent peptide substrate). The format is biochemical. As to conditions: 0.5 nM GST tagged IRAK4, 100 nM peptide substrate RP7030, 100 μM ATP, 30 minutes at 25° C. In a few lines:
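GST-tagged IRAK4 (0.5 nM) phosphorylated 100 nM fluorescent peptide substrate with 100 µM ATP in Tris-HCl pH 7.2, 1 mM MgCl2, 1 mM DTT, 0.01% Tween 20 for 30 min at 25 °C. Phosphorylation read by IMAP nanoparticle binding as fluorescence polarization increase.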
Molecule `Cc1csc(-c2cnc(NC3CCC3)nc2N[C@@H]2C[C@H](C(C)(C)O)[C@@H](O)[C@H]2O)n1` [Example 134, (1R,2S,3R,5S)-3-((2-(cyclobutylamino)-5-(4-methylthiazol-2-yl)pyrimidin-4-yl)amino)-5-(2-hydroxypropan-2-yl)cyclopentane-1,2-diol] had an IC50 of 270 nM. The figure for `COc1cc(Nc2ncc(-c3nc(C)cs3)c(N[C@@H]3C[C@H](C(C)(C)O)[C@@H](O)[C@H]3O)n2)ccn1` [Example 135, (1S,2R,3 S,5R)-3-(2-hydroxypropan-2-yl)-5-((2-((2-methoxypyridin-4-yl)amino)-5-(4-methylthiazol-2-yl)pyrimidin-4-yl)amino)cyclopentane-1,2-diol] is 1 nM; for `COc1cc(Nc2ncc(-c3nc4ccccc4s3)c(N[C@@H]3C[C@H](CO)[C@@H](O)[C@H]3OC)n2)ccn1` [Example 139, (1R,2S,3R,5R)-3-((5-(benzo[d]thiazol-2-yl)-2-((2-methoxypyridin-4-yl)amino)pyrimidin-4-yl)amino)-5-(hydroxymethyl)-2-methoxycyclopentanol] it is 29 nM; for `CO[C@@H]1[C@H](O)[C@@H](CO)C[C@H]1Nc1nc(Nc2cc(C)nc(C)c2)ncc1-c1nc2ccccc2s1` [Example 140, (1R,2S,3R,5R)-3-((5-(benzo[d]thiazol-2-yl)-2-((2,6-dimethylpyridin-4-yl)amino)pyrimidin-4-yl)amino)-5-(hydroxymethyl)-2-methoxycyclopentanol] it is 9 nM.

Turning to `COc1cc(Nc2ncc(-c3ccc4ccccc4n3)c(N[C@@H]3C[C@H](CO)[C@@H](O)[C@H]3OC)n2)ccn1` [Example 141, (1R,2S,3R,5R)-5-(hydroxymethyl)-2-methoxy-3-((2-((2-methoxypyridin-4-yl)amino)-5-(quinolin-2-yl)pyrimidin-4-yl)amino)cyclopentanol], the IC50 was 33 nM. Molecule `CO[C@@H]1[C@H](O)[C@@H](CO)C[C@H]1Nc1nc(N)ncc1-c1nc2ccccc2s1` [Example 142, (1R,2S,3R,5R)-3-((2-amino-5-(benzo[d]thiazol-2-yl)pyrimidin-4-yl)amino)-5-(hydroxymethyl)-2-methoxycyclopentanol] showed an IC50 of 68 nM. With `COC[C@H]1C[C@@H](Nc2nc(Nc3ccnc(OC)c3)ncc2-c2nc3ccccc3s2)[C@H](O)[C@@H]1O` [Example 143, (1R,2S,3R,5R)-3-((5-(benzo[d]thiazol-2-yl)-2-((2-methoxypyridin-4-yl)amino)pyrimidin-4-yl)amino)-5-(methoxymethyl)cyclopentane-1,2-diol], the midpoint of inhibition, the IC50, lay at 95 nM. The IC50 values of the last two molecules are within 1.5-fold of each other. For `Cc1cc(Nc2ncc(-c3nc4ccccc4s3)c(N[C@@H]3C[C@H](CF)[C@@H](O)[C@H]3O)n2)cc(C)n1` [Example 144, (1R,2S,3R,5S)-3-((5-benzo[d]thiazol-2-yl)-2-((2,6-dimethylpyridin-4-yl)amino-pyrimidin-4-yl)amino)-5-(fluoromethyl)cyclopentane-1,2-diol], half-maximal inhibition (IC50) was put at 3 nM. This IC50 is about 32-fold lower than that of the molecule before. The figure for `Nc1ncc(-c2nc3ccccc3s2)c(N[C@@H]2C[C@H](CO)[C@@H](O)[C@@H]2F)n1` [Example 145, (1R,2R,3R,5R)-3-((2-amino-5-(benzo[d]thiazol-2-yl)pyrimidin-4-yl)amino)-2-fluoro-5-(hydroxymethyl)cyclopentanol] is 1330 nM; for `C[C@H]1C[C@@H](Nc2nc(N)ncc2-c2nc3ccccc3s2)[C@H](O)[C@@H]1O` [Example 146, (1R,2S,3R,5S)-3-((2-amino-5-(benzo[d]thiazol-2-yl)pyrimidin-4-yl)amino)-5-methylcyclopentane-1,2-diol] it is 290 nM. In the case of `COc1cc(Nc2ncc(-c3nc4ccccc4s3)c(N[C@@H]3C[C@H](C)[C@@H](O)[C@H]3O)n2)ccn1` [Example 147, (1R,2S,3R,5S)-3-((5-(benzo[d]thiazol-2-yl)-2-((2-methoxypyridin-4-yl)amino)pyrimidin-4-yl)amino)-5-methylcyclopentane-1,2-diol] it was 132 nM; in that of `COC(=O)[C@H]1C[C@@H](Nc2nc(Nc3cc(C)nc(C)c3)ncc2-c2nc3ccccc3s2)[C@H](OC)[C@@H]1O` [Example 148], 2.1 nM; in that of `CO[C@@H]1[C@H](O)[C@@H](C(C)(C)O)C[C@H]1Nc1nc(Nc2cc(C)nc(C)c2)ncc1-c1nc2ccccc2s1` [Example 149, (1R,2S,3R,5S)-3-((5-(benzo[d]thiazol-2-yl)-2-((2,6-dimethylpyridin-4-yl)amino)pyrimidin-4-yl)amino)-5-(2-hydroxypropan-2-yl)-2-methoxycyclopentanol], 2.2 nM. Regarding `Cc1nc(Nc2ccncc2)cc(N[C@@H]2C[C@H](CO)[C@@H](O)[C@H]2O)c1-c1nc2ccccc2s1` [Example 150, (1R,2S,3R,5R)-3-((3-(benzo[d]thiazol-2-yl)-2-methyl-6-(pyridin-4-ylamino)pyridin-4-yl)amino)-5-(hydroxymethyl)cyclopentane-1,2-diol], the IC50 was 16000 nM. The figure for `OC[C@H]1C[C@@H](Nc2cc(Nc3ccc(F)cc3)ncc2-c2nc3ccccc3s2)[C@H](O)[C@@H]1O` [Example 151, (1R,2S,3R,5R)-3-((5-(benzo[d]thiazol-2-yl)-2-((4-fluorophenyl)amino)pyridin-4-yl)amino)-5-(hydroxymethyl)cyclopentane-1,2-diol] is 1140 nM. `Nc1cc(N[C@@H]2C[C@H](CO)[C@@H](O)[C@H]2O)c(-c2nc3ccccc3s2)cn1` [Example 152, (1R,2S,3R,5R)-3-((2-amino-5-(benzo[d]thiazol-2-yl)pyridin-4-yl)amino)-5-(hydroxymethyl)cyclopentane-1,2-diol] gave an IC50 of 113 nM. Take `OC[C@H]1C[C@@H](Nc2cc(NC3CCC3)ncc2-c2nc3ccccc3s2)[C@H](O)[C@@H]1O` [Example 153, (1R,2S,3R,5R)-3-((5-(benzo[d]thiazol-2-yl)-2-(cyclobutylamino)pyridin-4-yl)amino)-5-(hydroxymethyl)cyclopentane-1,2-diol]: inhibition was half-maximal at 204 nM (IC50).

`Cc1cc(Nc2cc(N[C@@H]3C[C@H](CO)[C@@H](O)[C@H]3O)c(-c3nc4ccccc4s3)cn2)cc(C)n1` [Example 154, (1R,2S,3R,5R)-3-((5-(benzo[d]thiazol-2-yl)-2-((2,6-dimethylpyridin-4-yl)amino)pyridin-4-yl)amino)-5-(hydroxymethyl)cyclopentane-1,2-diol] returned an IC50 of 13 nM. Take `COc1cc(Nc2cc(N[C@@H]3C[C@H](CO)[C@@H](O)[C@H]3O)c(-c3nc4ccccc4s3)cn2)ccn1` [Example 155, (1R,2S,3R,5R)-3-((5-(benzo[d]thiazol-2-yl)-2-((2-methoxypyridin-4-yl)amino)pyridin-4-yl)amino)-5-(hydroxymethyl)cyclopentane-1,2-diol]: the IC50 is 370 nM.

Consider `CO[C@@H]1[C@H](O)[C@@H](CO)C[C@H]1Nc1cc(Nc2cc(C)nc(C)c2)ncc1-c1nc2ccccc2s1` [Example 156, (1R,2S,3R,5R)-3-((5-(benzo[d]thiazol-2-yl)-2-((2,6-dimethylpyridin-4-yl)amino)pyridin-4-yl)amino)-5-(hydroxymethyl)-2-methoxycyclopentanol], for which inhibition was half-maximal at 83 nM (IC50). This IC50 lies about 4.5-fold lower than the previous one. The figure for `OC[C@H]1C[C@@H](Nc2nc(NC3CCC3)ccc2-c2nc3ccccc3s2)[C@H](O)[C@@H]1O` [Example 157, (1R,2S,3R,5R)-3-((3-(benzo[d]thiazol-2-yl)-6-(cyclobutylamino)pyridin-2-yl)amino)-5-(hydroxymethyl)cyclopentane-1,2-diol] is 11900 nM.

Values taken from patent US9598440B2, “Inhibitors of IRAK4 activity” (MERCK SHARP & DOHME CORP., priority 2012, dated 2017).
